# Measurements as given in patent US20230111310A1, “CARBOXYLIC ACID DERIVATIVE-SUBSTITUTED IMINO ARYL COMPOUND, PREPARATION METHOD THEREFOR, HERBICIDAL COMPOSITION AND USE THEREOF” (Qingdao Kingagroot Chemical Compound Co., Ltd., priority 2020, published 2023).
# Columns and labels:
# Type in all cases: in vivo
# [1] = system: Setaria viridis; assay: Weeding effect in post-emergence stage; conditions: level of fresh weight growth control rate
# How it was run: (§1)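 Weeds were treated post-emergence at 2-3 leaves with compound doses from 7.5 up to 500 g/ha, formulated in acetone–Tween 80 with methyl oleate synergist. Efficacy was assessed as growth control after 3 weeks.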
# [2] = system: Digitaria sanguinalis; assay: Weeding effect in post-emergence stage; conditions: level of fresh weight growth control rate
# How it was run: as §1
# [3] = system: Alopecurus japonicus; assay: Weeding effect in post-emergence stage; conditions: level of fresh weight growth control rate
# How it was run: as §1
# [4] = system: Eleusine indica; assay: Weeding effect in post-emergence stage; conditions: for Weeding effect in post-emergence stage, Eleusine indica: level of fresh weight growth control rate; for activity level (growth control rate) Eleusine indica: post-emergence, 7.5 g/ha, 3 weeks
# How it was run: as §1
# [5] = system: Abutilon theophrasti; assay: Weeding effect in post-emergence stage; conditions: level of fresh weight growth control rate
# How it was run: as §1
# [6] = system: Amaranthus retroflexus; assay: Weeding effect in post-emergence stage; conditions: 7.5 g/ha, 3 weeks
# How it was run: as §1
# [7] = system: Echinochloa crusgalli; assay: Weeding effect in post-emergence stage; conditions: for Weeding effect in post-emergence stage, Echinochloa crusgalli: level of fresh weight growth control rate; for activity level (growth control rate) Echinochloa crusgalli: post-emergence, 7.5 g/ha, 3 weeks
# How it was run: as §1
# [8] = system: Rice; assay: Transplanted rice safety evaluation; conditions: transplanted japonica rice, 30 g/ha, 21 days after treatment
# Method: (§2) The activity level criteria for plant damage (i.e., growth control rate) are as follows:
# In addition, the rice field soil that loaded into the 1/1,000,000 ha pot was leveled to keep water storage at 3-4 cm depth. The 5 leaf stage rice (japonica rice) was transplanted at 3 cm of transplanting depth the next day. The compound of the present invention was treated by the same way after 5 days of transplantation.
# (§3) The fertility condition of Echinochloa crusgalli. Scirpus juncoides. Bidens tripartita L., Monochoria vaginalis, Leptochloa chinensis and Sagittaria trifolia 14 days after the treatment of the compound of the invention and the fertility condition of rice 21 days after the treatment of the compound of the invention respectively with the naked eye. Evaluate the weed control effect with the above activity standard level. Many compounds show excellent activity and selectivity.
# [9] = system: Soybeans; assay: Pre-emergence stage, crop selectivity; conditions: 30 g/ha, 4 weeks
# How it was run: (§4)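 Test compounds were dissolved in acetone with tween 80, diluted with water and sprayed right after sowing, with seeds covered by 0.5-2 cm of soil. Rates were 500 to 7.5 g/ha. Growth control was scored against activity-level criteria after 4 weeks in the greenhouse.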
# [10] = system: cotton; assay: Pre-emergence stage, crop selectivity; conditions: 30 g/ha, 4 weeks
# How it was run: as §4
# [11] = system: corn; assay: Pre-emergence stage, crop selectivity; conditions: 30 g/ha, 4 weeks
# How it was run: as §4
# [12] = system: Peanut; assay: Pre-emergence stage, crop selectivity; conditions: 30 g/ha, 4 weeks
# How it was run: as §4
# [13] = system: Monochoria vaginalis; assay: Weed control effect evaluation in rice field; conditions: rice field pot, 30 g/ha, 14 days after treatment
# From the text: as §2
# (§5) Rice field soil was loaded into a 1/1,000,000 ha pot. The seeds of Echinochloa crusgalli. Scirpus juncoides. Bidens tripartita L., Monochoria vaginalis, and Leptochloa chinensis were sowed and gently covered with soil, then left to stand still in greenhouse in the state of 0.5-1 cm of water storage. The tuber of Sagittaria trifolia was planted in the next day or 2 days later. It was kept at 3-4 cm of water storage thereafter. The weeds were treated by dripping the WP or SC water diluents prepared according to the common preparation method of the compounds of the present invention with pipette homogeneously to achieve specified effective amount when Echinochloa crusgalli. Scirpus juncoides, Bidens tripartita L., Monochoria vaginalis, and Leptochloa chinensis reached 0.5 leaf stage and Sagittaria trifolia reached the time point of primary leaf stage.
# as §3
# [14] = system: Leptochloa chinensis; assay: Weed control effect evaluation in rice field; conditions: rice field pot, 30 g/ha, 14 days after treatment
# From the text: as §2, §5, §3
# [15] = system: Scirpus juncoides; assay: Weed control effect evaluation in rice field; conditions: rice field pot, 30 g/ha, 14 days after treatment
# From the text: as §2, §5, §3
# [16] = system: Setaria viridis; assay: Weeding effect in pre-emergence stage; conditions: 30 g/ha, 4 weeks
# How it was run: as §4
# [17] = system: Amaranthus retroflexus; assay: Weeding effect in pre-emergence stage; conditions: 30 g/ha, 4 weeks
# How it was run: as §4
# [18] = system: Descurainia sophia; assay: Weeding effect in pre-emergence stage; conditions: 30 g/ha, 4 weeks
# How it was run: as §4
# [19] = system: Capsella bursa-pastoris; assay: Weeding effect in pre-emergence stage; conditions: 30 g/ha, 4 weeks
# How it was run: as §4
# [20] = system: Abutilon theophrasti; assay: Weeding effect in pre-emergence stage; conditions: 30 g/ha, 4 weeks
# How it was run: as §4
# [21] = system: Veronica didyma Tenore; assay: Weeding effect in pre-emergence stage; conditions: 30 g/ha, 4 weeks
# How it was run: as §4
compound,measurement,setting,value
COC(=O)C(C)O/N=C/c1cc(-n2c(=O)n(C)c(=S)n(C)c2=O)c(F)cc1Cl (stereo not drawn) [Compound 1],"Weeding effect in post-emergence stage, Setaria viridis",[1]; Dose 15 g/ha,5 (Level 5: growth control rate is above 85%)
same,"Weeding effect in post-emergence stage, Digitaria sanguinalis",[2]; Dose 15 g/ha,5 (Level 5: growth control rate is above 85%)
same,"Weeding effect in post-emergence stage, Alopecurus japonicus",[3]; Dose 15 g/ha,5 (Level 5: growth control rate is above 85%)
same,"Weeding effect in post-emergence stage, Eleusine indica",[4]; Dose 15 g/ha,5 (Level 5: growth control rate is above 85%)
same,activity level (growth control rate) Eleusine indica,[4],3 (Level 3: growth control rate is greater than or equal to 40% and less than 60%)
same,"Weeding effect in post-emergence stage, Abutilon theophrasti",[5]; Dose 15 g/ha,5 (Level 5: growth control rate is above 85%)
same,activity level (growth control rate) Amaranthus retroflexus,[6],3 (Level 3: growth control rate is greater than or equal to 40% and less than 60%)
same,"Weeding effect in post-emergence stage, Echinochloa crusgalli",[7]; Dose 15 g/ha,5 (Level 5: growth control rate is above 85%)
same,activity level (growth control rate) Echinochloa crusgalli,[7],3 (Level 3: growth control rate is greater than or equal to 40% and less than 60%)
CCOC(=O)[C@@H](C)O/N=C/c1cc(-n2c(=O)cc(C(F)(F)F)n(C)c2=O)c(F)cc1Cl [196(R)],plant damage level Rice,[8],0 (Level 0: growth control rate is less than 5%)
same,"Weeding effect in post-emergence stage, Setaria viridis",[1]; Dose 15 g/ha,5 (Level 5: growth control rate is above 85%)
same,"Weeding effect in post-emergence stage, Digitaria sanguinalis",[2]; Dose 15 g/ha,5 (Level 5: growth control rate is above 85%)
same,"Weeding effect in post-emergence stage, Alopecurus japonicus",[3]; Dose 15 g/ha,5 (Level 5: growth control rate is above 85%)
same,"Weeding effect in post-emergence stage, Eleusine indica",[4]; Dose 15 g/ha,5 (Level 5: growth control rate is above 85%)
same,"Weeding effect in post-emergence stage, Abutilon theophrasti",[5]; Dose 15 g/ha,5 (Level 5: growth control rate is above 85%)
same,"Weeding effect in post-emergence stage, Echinochloa crusgalli",[7]; Dose 15 g/ha,5 (Level 5: growth control rate is above 85%)
same,plant damage level Soybeans,[9],0 (Level 0: growth control rate is less than 5%)
same,plant damage level Cotton,[10],0 (Level 0: growth control rate is less than 5%)
same,plant damage level Corn,[11],0 (Level 0: growth control rate is less than 5%)
same,plant damage level Peanut,[12],0 (Level 0: growth control rate is less than 5%)
same,activity level (weed control effect) Monochoria vaginalis,[13],5 (Level 5: growth control rate is above 85%)
same,activity level (weed control effect) Leptochloa chinensis,[14],5 (Level 5: growth control rate is above 85%)
same,activity level (weed control effect) Scirpus juncoides,[15],5 (Level 5: growth control rate is above 85%)
same,activity level (growth control rate) Setaria viridis,[16],5 (Level 5: growth control rate is above 85%)
same,activity level (growth control rate) Amaranthus retroflexus,[17],5 (Level 5: growth control rate is above 85%)
same,activity level (growth control rate) Descurainia sophia,[18],5 (Level 5: growth control rate is above 85%)
same,activity level (growth control rate) Capsella bursa-pastoris,[19],5 (Level 5: growth control rate is above 85%)
same,activity level (growth control rate) Abutilon theophrasti,[20],5 (Level 5: growth control rate is above 85%)
same,activity level (growth control rate) Veronica didyma Tenore,[21],5 (Level 5: growth control rate is above 85%)
COC(=O)[C@@H](C)O/N=C/c1cc(-n2c(=O)n(C)c(=S)n(C)c2=O)c(F)cc1Cl [1(R)],"Weeding effect in post-emergence stage, Setaria viridis",[1]; Dose 15 g/ha,5 (Level 5: growth control rate is above 85%)
same,"Weeding effect in post-emergence stage, Digitaria sanguinalis",[2]; Dose 15 g/ha,5 (Level 5: growth control rate is above 85%)
same,"Weeding effect in post-emergence stage, Alopecurus japonicus",[3]; Dose 15 g/ha,5 (Level 5: growth control rate is above 85%)
same,"Weeding effect in post-emergence stage, Eleusine indica",[4]; Dose 15 g/ha,5 (Level 5: growth control rate is above 85%)
same,activity level (growth control rate) Eleusine indica,[4],5 (Level 5: growth control rate is above 85%)
same,"Weeding effect in post-emergence stage, Abutilon theophrasti",[5]; Dose 15 g/ha,5 (Level 5: growth control rate is above 85%)
same,activity level (growth control rate) Amaranthus retroflexus,[6],5 (Level 5: growth control rate is above 85%)
same,"Weeding effect in post-emergence stage, Echinochloa crusgalli",[7]; Dose 15 g/ha,5 (Level 5: growth control rate is above 85%)
same,activity level (growth control rate) Echinochloa crusgalli,[7],4 (Level 4: growth control rate is greater than or equal to 60% and less than 85%)
same,plant damage level Soybeans,[9],0 (Level 0: growth control rate is less than 5%)
same,plant damage level Cotton,[10],0 (Level 0: growth control rate is less than 5%)
same,plant damage level Corn,[11],0 (Level 0: growth control rate is less than 5%)
same,plant damage level Peanut,[12],0 (Level 0: growth control rate is less than 5%)
same,activity level (growth control rate) Setaria viridis,[16],5 (Level 5: growth control rate is above 85%)
same,activity level (growth control rate) Amaranthus retroflexus,[17],5 (Level 5: growth control rate is above 85%)
same,activity level (growth control rate) Descurainia sophia,[18],5 (Level 5: growth control rate is above 85%)
same,activity level (growth control rate) Capsella bursa-pastoris,[19],5 (Level 5: growth control rate is above 85%)
same,activity level (growth control rate) Abutilon theophrasti,[20],5 (Level 5: growth control rate is above 85%)
same,activity level (growth control rate) Veronica didyma Tenore,[21],5 (Level 5: growth control rate is above 85%)
COC(=O)C(C)O/N=C/c1cc(-n2c(=O)cc(C(F)(F)F)n(C)c2=O)c(F)cc1Cl (racemic) [Compound 194],"Weeding effect in post-emergence stage, Setaria viridis",[1]; Dose 7.5 g/ha,5 (Level 5: growth control rate is above 85%)
same,"Weeding effect in post-emergence stage, Setaria viridis",[1]; Dose 15 g/ha,5 (Level 5: growth control rate is above 85%)
same,"Weeding effect in post-emergence stage, Digitaria sanguinalis",[2]; Dose 7.5 g/ha,5 (Level 5: growth control rate is above 85%)
same,"Weeding effect in post-emergence stage, Digitaria sanguinalis",[2]; Dose 15 g/ha,5 (Level 5: growth control rate is above 85%)
same,"Weeding effect in post-emergence stage, Alopecurus japonicus",[3]; Dose 7.5 g/ha,4 (Level 4: growth control rate is greater than or equal to 60% and less than 85%)
same,"Weeding effect in post-emergence stage, Alopecurus japonicus",[3]; Dose 15 g/ha,5 (Level 5: growth control rate is above 85%)
same,"Weeding effect in post-emergence stage, Eleusine indica",[4]; Dose 7.5 g/ha,5 (Level 5: growth control rate is above 85%)
same,"Weeding effect in post-emergence stage, Eleusine indica",[4]; Dose 15 g/ha,5 (Level 5: growth control rate is above 85%)
same,activity level (growth control rate) Eleusine indica,[4],4 (Level 4: growth control rate is greater than or equal to 60% and less than 85%)
same,"Weeding effect in post-emergence stage, Abutilon theophrasti",[5]; Dose 7.5 g/ha,5 (Level 5: growth control rate is above 85%)
same,"Weeding effect in post-emergence stage, Abutilon theophrasti",[5]; Dose 15 g/ha,5 (Level 5: growth control rate is above 85%)
same,activity level (growth control rate) Amaranthus retroflexus,[6],5 (Level 5: growth control rate is above 85%)
same,"Weeding effect in post-emergence stage, Echinochloa crusgalli",[7]; Dose 7.5 g/ha,5 (Level 5: growth control rate is above 85%)
same,"Weeding effect in post-emergence stage, Echinochloa crusgalli",[7]; Dose 15 g/ha,5 (Level 5: growth control rate is above 85%)
same,activity level (growth control rate) Echinochloa crusgalli,[7],4 (Level 4: growth control rate is greater than or equal to 60% and less than 85%)
